Our source for the Ki values is US9226916B2, “Pyrrolidine derivatives” (HOFFMANN-LA ROCHE INC., priority 2009, dated 2016).

Molecules are shown by their SMILES. Read-outs that look alike come from different tables or passages of the source.

In the assay the target is T1, recombinant human NK3 receptor (Homo sapiens, UniProt P29371).
T1 construct: expressed in transfected cells; host or cells: HEK293 cells, transient expression; membranes
T1 sequence (P29371 1-465): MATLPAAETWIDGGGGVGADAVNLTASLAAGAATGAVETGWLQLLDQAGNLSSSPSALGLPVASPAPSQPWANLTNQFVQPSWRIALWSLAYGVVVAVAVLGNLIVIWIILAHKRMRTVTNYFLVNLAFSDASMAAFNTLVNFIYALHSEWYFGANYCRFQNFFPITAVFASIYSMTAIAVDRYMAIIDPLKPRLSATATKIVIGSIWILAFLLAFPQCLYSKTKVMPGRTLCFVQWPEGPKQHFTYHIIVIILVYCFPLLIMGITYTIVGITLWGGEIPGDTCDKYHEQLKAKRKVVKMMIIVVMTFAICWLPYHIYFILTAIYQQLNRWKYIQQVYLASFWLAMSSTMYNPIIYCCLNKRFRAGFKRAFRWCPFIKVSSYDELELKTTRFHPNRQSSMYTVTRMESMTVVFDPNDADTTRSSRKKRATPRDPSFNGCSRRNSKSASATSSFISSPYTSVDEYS
Description: [3H]SR142801 competition binding assay.

Broadly, the Ki is the equilibrium dissociation constant of an inhibitor or competing ligand from its target. With `CN(C(=O)OCC1CCCC1)[C@H]1CN(C(=O)C2CCN(C(=O)C3(C)CC3)CC2)C[C@@H]1c1ccc(Cl)c(Cl)c1` (racemic) [Example 32, rac-{(3R,4S)-4-(3,4-Dichloro-phenyl)-1-[1-(1-methyl-cyclopropanecarbonyl)-piperidine-4-carbonyl]-pyrrolidin-3-yl}-methyl-carbamic acid cyclopentylmethyl ester], the inhibitory constant (Ki) was 1.4 nM.

With `CN(C(=O)Oc1ccc(F)cc1)[C@H]1CN(C(=O)[C@H]2CC[C@H](O)CC2)C[C@@H]1c1ccc(Cl)c(Cl)c1` (racemic) [Example 37, rac-[(3R,4S)-4-(3,4-Dichloro-phenyl)-1-(trans-4-hydroxy-cyclohexanecarbonyl)-pyrrolidin-3-yl]-methyl-carbamic acid 4-fluoro-phenyl ester], the Ki was found to be 0.7 nM. For the compound `CN(C(=O)Oc1ccc(F)cc1)[C@H]1CN(C(=O)C2CCN(C(=O)C3(C)CC3)CC2)C[C@H]1c1ccc(Cl)c(Cl)c1` (racemic) [Example 40, rac-{(3R,4R)-4-(3,4-Dichloro-phenyl)-1-[1-(1-methyl-cyclopropanecarbonyl)-piperidine-4-carbonyl]-pyrrolidin-3-yl}-methyl-carbamic acid 4-fluoro-phenyl ester], the inhibition constant Ki came to 4.2 nM. The same measure, in the same setting: next, `CC1(C(=O)N2CCC(C(=O)N3C[C@H](NC(=O)Oc4ccc(F)cc4)[C@@H](c4ccc(Cl)c(Cl)c4)C3)CC2)CC1` (racemic) [Example 43, rac-{(3R,4S)-4-(3,4-Dichloro-phenyl)-1-[1-(1-methyl-cyclopropanecarbonyl)-piperidine-4-carbonyl]-pyrrolidin-3-yl}-carbamic acid 4-fluoro-phenyl ester]: 3.4 nM; `CN(C(=O)Oc1ccc(F)cc1)[C@H]1CN(C(=O)C2CCOCC2)C[C@@H]1c1ccc(Cl)c(Cl)c1` (racemic) [Example 44, rac-[(3R,4S)-4-(3,4-Dichloro-phenyl)-1-(tetrahydro-pyran-4-carbonyl)-pyrrolidin-3-yl]-methyl-carbamic acid 4-fluoro-phenyl ester]: 2.9 nM; `CN(C(=O)Oc1ccc(F)cc1)[C@H]1CN(C(=O)[C@H]2CC[C@@H](O)CC2)C[C@@H]1c1ccc(Cl)c(Cl)c1` (racemic) [Example 47, rac-[(3R,4S)-4-(3,4-Dichloro-phenyl)-1-(cis-4-hydroxy-cyclohexanecarbonyl)-pyrrolidin-3-yl]-methyl-carbamic acid 4-fluoro-phenyl ester]: 3.4 nM. Still for that read-out and setting: next, `CN(C(=O)Oc1ccc(F)cc1)[C@H]1CN(C(=O)N2CCOCC2)C[C@@H]1c1ccc(Cl)c(Cl)c1` (racemic) [Example 48, rac-[(3R,4S)-4-(3,4-Dichloro-phenyl)-1-(morpholine-4-carbonyl)-pyrrolidin-3-yl]-methyl-carbamic acid 4-fluoro-phenyl ester]: 29.4 nM. Take `CO[C@H]1CC[C@@H](C(=O)N2C[C@H](c3ccc(Cl)c(Cl)c3)[C@@H](N(C)C(=O)Oc3ccc(F)cc3)C2)CC1` (racemic) [Example 49, rac-[(3R,4S)-4-(3,4-Dichloro-phenyl)-1-(cis-4-methoxy-cyclohexanecarbonyl)-pyrrolidin-3-yl]-methyl-carbamic acid 4-fluoro-phenyl ester]: the Ki was 3.5 nM.

For the compound `CN(C(=O)Oc1ccc(F)cc1)[C@H]1CN(C(=O)[C@H]2CC[C@](C)(O)CC2)C[C@@H]1c1ccc(Cl)c(Cl)c1` (racemic) [Example 52, rac-[(3R,4S)-4-(3,4-Dichloro-phenyl)-1-(trans-4-hydroxy-4-methyl-cyclohexanecarbonyl)-pyrrolidin-3-yl]-methyl-carbamic acid 4-fluoro-phenyl ester], the inhibition constant Ki is 8.1 nM. On the same count and under the same terms, then `CN(C(=O)Oc1ccc(F)cc1)[C@H]1CN(C(=O)[C@H]2CC[C@@](C)(O)CC2)C[C@@H]1c1ccc(Cl)c(Cl)c1` (racemic) [Example 53, rac-[(3R,4S)-4-(3,4-Dichloro-phenyl)-1-(cis-4-hydroxy-4-methyl-cyclohexanecarbonyl)-pyrrolidin-3-yl]-methyl-carbamic acid 4-fluoro-phenyl ester], with 4.7 nM; and `CN(C(=O)Oc1ccc(F)cc1)[C@H]1CN(C(=O)CCC(N)=O)C[C@@H]1c1ccc(Cl)c(Cl)c1` (racemic) [Example 55, rac-[(3R,4S)-1-(3-Carbamoyl-propionyl)-4-(3,4-dichloro-phenyl)-pyrrolidin-3-yl]-methyl-carbamic acid 4-fluoro-phenyl ester], with 86.1 nM. Still for that read-out and setting: then `CN(C(=O)Oc1ccc(F)cc1)[C@H]1CN(C(=O)CCN2CCCC2=O)C[C@@H]1c1ccc(Cl)c(Cl)c1` (racemic) [Example 56, rac-{(3R,4S)-4-(3,4-Dichloro-phenyl)-1-[3-(2-oxo-pyrrolidin-1-yl)-propionyl]-pyrrolidin-3-yl}-methyl-carbamic acid 4-fluoro-phenyl ester], with 61.3 nM. Same read-out and setting: then `CN(C(=O)O[C@H]1CC[C@H](C)CC1)[C@H]1CN(C(=O)C2CCN(C(=O)C3(C)CC3)CC2)C[C@@H]1c1ccc(Cl)cc1` (racemic) [Example 57, rac-{(3R,4S)-4-(4-Chloro-phenyl)-1-[1-(1-methyl-cyclopropanecarbonyl)-piperidine-4-carbonyl]-pyrrolidin-3-yl}-methyl-carbamic acid 4-methyl-cyclohexyl ester], with 7.6 nM.

In the case of `CC(=O)N1CCC(C(=O)N2C[C@H](c3ccc(Cl)c(Cl)c3)[C@@H](N(C)C(=O)Oc3ccc(F)cc3)C2)CC1` (racemic) [Example 65, rac-[(3R,4S)-1-(1-Acetyl-piperidine-4-carbonyl)-4-(3,4-dichloro-phenyl)-pyrrolidin-3-yl]-methyl-carbamic acid 4-fluoro-phenyl ester], the Ki came to 0.7 nM. For `CN(C(=O)Oc1ccc(F)cc1)[C@H]1CN(C(=O)C2CCN(C(=O)OC(C)(C)C)CC2)C[C@@H]1c1ccc(Cl)c(Cl)c1` (racemic) [Example 66, rac-4-{(3S,4R)-3-(3,4-Dichloro-phenyl)-4-[(4-fluoro-phenoxycarbonyl)-methyl-amino]-pyrrolidine-1-carbonyl}-piperidine-1-carboxylic acid tert-butyl ester], the inhibition constant Ki was 0.8 nM. Consider `CN(C(=O)OCCCC(F)(F)F)[C@H]1CN(C(=O)C2CCN(C(=O)C3(C)CC3)CC2)C[C@@H]1c1ccc(Cl)c(Cl)c1` (racemic) [Example 67, rac-{(3R,4S)-4-(3,4-Dichloro-phenyl)-1-[1-(1-methyl-cyclopropanecarbonyl)-piperidine-4-carbonyl]-pyrrolidin-3-yl}-methyl-carbamic acid 4,4,4-trifluoro-butyl ester], for which, for the setting “hNK-3 receptor affinity, membranes from HEK293 cells transiently expressing recombinant human NK3 receptor, [3H]SR142801, Cheng-Prussoff, read-out: Data Ki”, the Ki was 0.4 nM. Regarding `Cc1ccc([C@H]2CN(C(=O)C3CCN(C(=O)C4(C)CC4)CC3)C[C@@H]2N(C)C(=O)Oc2ccc(F)cc2)cc1Cl` (racemic) [Example 70, rac-{(3R,4S)-4-(3-Chloro-4-methyl-phenyl)-1-[1-(1-methyl-cyclopropanecarbonyl)-piperidine-4-carbonyl]-pyrrolidin-3-yl}-methyl-carbamic acid 4-fluoro-phenyl ester], the inhibitory constant (Ki) was found to be 1.3 nM. Same read-out and setting: then `Cc1cc([C@H]2CN(C(=O)C3CCN(C(=O)C4(C)CC4)CC3)C[C@@H]2N(C)C(=O)Oc2ccc(F)cc2)ccc1Cl` (racemic) [Example 71, rac-{(3R,4S)-4-(4-Chloro-3-methyl-phenyl)-1-[1-(1-methyl-cyclopropanecarbonyl)-piperidine-4-carbonyl]-pyrrolidin-3-yl}-methyl-carbamic acid 4-fluoro-phenyl ester], with 1.8 nM; and `CN(C(=O)Oc1ccc(F)cc1)[C@H]1CN(C(=O)C2CCNCC2)C[C@@H]1c1ccc(Cl)c(Cl)c1` (racemic) [Example 72, rac-[(3R,4S)-4-(3,4-Dichloro-phenyl)-1-(piperidine-4-carbonyl)-pyrrolidin-3-yl]-methyl-carbamic acid 4-fluoro-phenyl ester], with 21.2 nM. On the same count and under the same terms, next, `CCC(=O)N1CCC(C(=O)N2C[C@H](c3ccc(Cl)c(Cl)c3)[C@@H](N(C)C(=O)Oc3ccc(F)cc3)C2)CC1` (racemic) [Example 73, rac-[(3R,4S)-4-(3,4-Dichloro-phenyl)-1-(1-propionyl-piperidine-4-carbonyl)-pyrrolidin-3-yl]-methyl-carbamic acid 4-fluoro-phenyl ester]: 0.8 nM. As for `CN(C(=O)Oc1ccc(F)cc1)[C@H]1CN(C(=O)C2CCN(C(=O)C3CC3)CC2)C[C@@H]1c1ccc(Cl)c(Cl)c1` (racemic) [Example 74, rac-[(3R,4S)-1-(1-Cyclopropanecarbonyl-piperidine-4-carbonyl)-4-(3,4-dichloro-phenyl)-pyrrolidin-3-yl]-methyl-carbamic acid 4-fluoro-phenyl ester], the inhibition constant (Ki) was 0.8 nM. For the compound `COCC(=O)N1CCC(C(=O)N2C[C@H](c3ccc(Cl)c(Cl)c3)[C@@H](N(C)C(=O)Oc3ccc(F)cc3)C2)CC1` (racemic) [Example 75, rac-{(3R,4S)-4-(3,4-Dichloro-phenyl)-1-[1-(2-methoxy-acetyl)-piperidine-4-carbonyl]-pyrrolidin-3-yl}-methyl-carbamic acid 4-fluoro-phenyl ester], the inhibition constant (Ki) came to 0.6 nM. As for `CN(C(=O)Oc1ccc(F)cc1)[C@H]1CN(C(=O)C2CCN(C(=O)C3CCOCC3)CC2)C[C@@H]1c1ccc(Cl)c(Cl)c1` (racemic) [Example 76, rac-{(3R,4S)-4-(3,4-Dichloro-phenyl)-1-[1-(tetrahydro-pyran-4-carbonyl)-piperidine-4-carbonyl]-pyrrolidin-3-yl}-methyl-carbamic acid 4-fluoro-phenyl ester], the inhibitory constant (Ki) amounted to 0.7 nM.
